Data taken from PMC6571673, “Cytostatic and Cytotoxic Natural Products against Cancer Cell Models” (Molecules, 2019).

Key:
[1] = tested on: KOPN-8; test: Cell cycle analysis (PI DNA content, flow cytometry); type: cell-based, human; conditions: KOPN-8, 24 h; silvestrol 5 µM, 8 5 µM, 9 10 µM, 10 5 µM, 12 10 µM, 13 10 µM
Description: (§1) The samples were probed with AnnexinV-FITC (Roche/Boehringer Mannheim, Indianapolis, IN, USA) according to the manufacturer’s instructions. KOPN-8 or SUB-P15 cells were plated (1.00 × 10^6 cells/plate) and incubated for 12 h and incubated at 37 °C. Then, cells were treated with compounds or controls for 24 h. Cells were stained with AnnexinV-FITC, PI and the staining profiles were determined with FACScan and Cell-Quest software. For cellular DNA content, the same cell treatment as above was performed. Then, cells were fixed in cold 75% ethanol, treated with RNase and then stained with PI solution (50 µg/mL). Cell cycle distribution was analyzed with the FACSCalibur analyzer (BD Biosciences, Franklin Lakes, NJ, USA) and Cell-Quest software. The percentage of DNA content at different phases of the cell cycle was analyzed with ModFit-software (version 5.0, Verity Software House, Topsham, ME, USA).

[2] = tested on: SUP-B15; test: as above; type: cell-based, human; conditions: SUP-B15, 24 h; silvestrol 5 µM, 8 5 µM, 9 10 µM, 10 5 µM, 12 10 µM, 13 10 µM
Description: as §1

[3] = tested on: SUP-B15; test: ApoTox-Glo triplex assay; type: cell-based, human; conditions: SUP-B15, 36 h; 9 0.2–100 µM, 10 0.02–10 µM
Description: Cells (9.5 × 10^4 cells/well in 75 µL) were dispensed in 96-well black flat bottom (8807BC, Corning) plates. The cells were incubated for 12 h at 37 °C and treated with compounds (25 µL) for 36 h. DMSO was used as a negative control and camptothecan was used as the positive control. Then, the experiment was stopped by adding the Viability/Cytotoxicity Reagent, and briefly mixed by orbital shaking (300–500 rpm for ~30 s). Plates were incubated for 30 min at 37 °C and fluorescence was measured at the wavelength 400Ex/505Em for viability and 485Ex/520Em for cytotoxicity in an Envision plate reader (Perkin Elmer). Finally, the Caspase-Glo® 3/7 Reagent was added, and the plates were mixed by orbital shaking (300–500 rpm for ~30 s), followed by an additional 30 min incubation at RT. Luminescence was recorded with a plate reader (Envision, Perkin Elmer) to capture caspase 3/7 activation and determine apoptosis induction.

[4] = tested on: MDA-MB-231; test: Propidium iodide (PI) assay, 48 h; type: cell-based, human; conditions: MDA-MB-231, 48 h
Description: The first step was to evaluate if the compounds display cytotoxicity against the adherent cells. Propidium iodide (PI) assay was performed for the drug resistant solid tumor cellular models (triple negative breast cancer models: SUM149 and MDA-MB-231) for 48 h (Figure 5) [30, 31].

[5] = Simulated gastric fluid (SGF) stability; type: in vitro ADME; conditions: read-out: SGF stability t1/2
Description: (§2) To gain further information regarding intracellular compound localization, studies were extended to include a marker for the ER (Figure 8). The staining pattern for the individual probes are shown in Figure 8A (ER), Figure 8B (Lysosome) and Figure 8D (probe 9a). […] Moreover, when all three channels were merged, white specks were observed, indicating co-localization of probe 9a with cellular structures that are stained by both ER and lysosomal marker dyes (Figure 8F). […] These mechanisms provide a plausible explanation for the lower potency of compound 9 compared to compound 10. Finally, in vitro ADME (absorption, distribution, metabolism, and elimination) profiles were evaluated for compounds 9 and 10 to compare with the obtained cellular data (Supplementary Material, Figure S10). The aqueous solubility properties at physiological pH (7.40) of compounds 9 and 10 were good compared to controls. […] The combined findings indicate that the steric-effects of the hydroxysuccinate appendage of compound 10 renders it less prone to degradation by lysosomal activity or other competing cellular removal mechanisms.

[6] = Metabolic stability in liver microsomes; type: in vitro ADME; conditions: for half-life: read-out: metabolic stability t1/2
Description: as §2

[7] = caco-2 permeability assay; type: in vitro ADME; conditions: human, read-out: efflux ratio, B2A/A2B
Description: as §2

| half-life [5] [h] | half-life ([6]; human liver microsomes) [h] | half-life ([6]; mouse liver microsomes) [h] | Structure (SMILES) | cell cycle effect [1] | cell cycle effect [2] | caspase 3/7 activity [3] | cytotoxicity by membrane integrity (bis-AAF-RF110) [3] | viability (GF-AFC) [3] | activity in PI assay [4] | half-life ([5]; simulated gi fluid) [h] | metabolic stability t1/2 ([6]; human liver microsomes) | metabolic stability t1/2 ([6]; mouse liver microsomes) | efflux ratio [7] |
| --- | --- | --- | --- | --- | --- | --- | --- | --- | --- | --- | --- | --- | --- |
| – | – | – | COC1=C[C@]23CCCN2CCc2cc4c(cc2[C@@H]3[C@@H]1O)OCO4 [Compound 9, cephalotaxine] | no significant cell arrest | no significant cell arrest | increased caspase 3/7 activity | little cytotoxic effects | decreased viability | substantial activity | > 33 | rapidly degraded | rapidly degraded | ~2 |
| > 33 | ≥ 1 | ≥ 1 | COC(=O)C[C@](O)(CCCC(C)(C)O)C(=O)O[C@@H]1C(OC)=C[C@]23CCCN2CCc2cc4c(cc2[C@H]13)OCO4 [Compound 10, homoharringtonine, reference compound] | almost identical to silvestrol | almost identical to silvestrol | increased caspase 3/7 activity | little cytotoxic effects | decreased viability | substantial activity | – | – | – | < 1 |
